Here are results for three compounds from patent US20100286081A1, “5-AMINO-3-(2',3'-DI-O-ACETYL-BETA-D-RIBOFURANOSYL)-3H-THIAZOLO[4,5-D] PYRIMIDIN-2-OCE SALTS AND CRYSTALLINE FORMS” (Anadys Pharmaceuticals Inc., priority 2006, published 2010).

SMILES strings stand for the structures.

Data set [1] can be described thus: Water sorption curve (DVS analysis at 25° C.). To be noted: for Weight change in %: DVS analysis at 25° C. It counts as physicochemical. The text has this:
Water Sorption Curve of 5-amino-3-(2′,3′-di-O-acetyl-beta-D-ribofuranosyl)-3H-thiazolo[4,5-d]pyrimidin-2-one Amorphous Base (FIG. 6)
Water Sorption Curve of 5-amino-3-(2′,3′-di-O-acetyl-beta-D-ribofuranosyl)-3H-thiazolo[4,5-d]pyrimidin-2-one Maleate Salt (FIG. 7)

The nature of data set [2]: Stability of polymorphic form. Format: physicochemical.

As to `CC(=O)O[C@@H]1[C@H](OC(C)=O)[C@@H](CO)O[C@H]1n1c(=O)sc2cnc(N)nc21.O=C(O)/C=C\C(=O)O` [5-amino-3-(2′,3′-di-O-acetyl-beta-D-ribofuranosyl)-3H-thiazolo[4,5-d]pyrimidin-2-one maleate], the “Weight change in %” value in data set [1] (0-20% r.h.) came to 0.08%; in data set [1] (0-40% r.h.) it was 0.17%; in data set [1] (0-60% r.h.) it was 0.23%; in data set [1] (0-80% r.h.), 0.32%; in data set [1] (0-95% r.h.), 0.31%.
Take `CC(=O)O[C@@H]1[C@H](OC(C)=O)[C@@H](CO)O[C@H]1n1c(=O)sc2cnc(N)nc21` [5-Amino-3-(2′,3′-di-O-acetyl-beta-D-ribofuranosyl)-3H-thiazolo[4,5-d]pyrimidin-2-one]: the “Hygroscopicity (in words)” value in data set [1] is given as “hygroscopic”. Further, the “Weight change in %” value in data set [1] (0-20% r.h.) turned out to be 0.50%; in data set [1] (0-40% r.h.) it was 0.86%; in data set [1] (0-60% r.h.), 1.55%; in data set [1] (0-80% r.h.), 3.07%; in data set [1] (0-95% r.h.), 4.68%.
Turning to `CC(=O)O[C@@H]1[C@H](OC(C)=O)[C@@H](CO)O[C@H]1n1c(=O)sc2cnc(N)nc21.O=C(O)/C=C\C(=O)O` [Form B, 5-Amino-3-(2′,3′-di-O-acetyl-beta-D-ribofuranosyl)-3H-thiazolo[4,5-d]pyrimidin-2-one maleate], in data set [2], the “Stability of polymorphic form (in words)” value is “particularly stable polymorphic form”.
